pIC50: −log10 of the molar value. Where two headings read alike, the source gives them in different places.

We go through 13 compounds from paper PMC10711620 (Frontiers in Pharmacology, 2023).

Assay [1] has as its system blood platelets. In words: ADP-induced blood platelet aggregation in platelet-rich plasma. In kind it is cell-based. The note with it: Homo sapiens; for inhibition at 50 µg/mL: 50 μg/mL, ADP as agonist. How it is done:
(§1) The blood samples under examination contained a normal range of blood platelets, ranging from 2.15 × 10^5 to 3.41 × 10^5 cells/μl. Platelet-rich plasma (PRP) was prepared by differentially centrifuging whole blood according to the method described earlier ([Kolodziejczyk-Czepas et al., 2021]). Subsequently, freshly obtained PRP samples (495 μL) were pre-incubated for 15 min at 37°C with the tested analytes (5 μL). These mixtures were then transferred into Chrono-Log 490 aggregometer cuvettes (Havertown, United States). Platelet aggregation measurements were conducted after stimulating the samples with either ADP (a final concentration of 10 μM) or collagen (a final concentration of 2 μg/mL), following the manufacturer’s instructions.

For assay [2], the target named is T1, thrombin (Bos taurus, UniProt P00735).
T1 construct: comprises two polypeptide chains: the light chain, formed by 36 amino acids, and the heavy chain, which has 259 amino acids; purchased Biomed (Lublin, Poland)
In words: Amidolytic activity of thrombin, chromogenic substrate S-2238. The class given is biochemical. The note with it: read-out: IC50, thrombin-inhibitory efficiency in the amidolytic tests (converted). On the procedure:
(§2) When determining the hemostatic parameters, stock solutions of the P. spinosa flower extracts (10 mg/mL) were prepared in 30% DMSO. DMSO concentrations in working solutions of the tested extracts (0.1, 0.5 and 5 mg/mL) were 15%. The studies mixed 5 µL of the extracts with 495 µL of blood plasma or thrombin solution. Control samples were untreated with the extracts; however, they contained a vehicle for the plant preparations, i.e., DMSO.
The thrombin enzyme, purchased from Biomed (Lublin, Poland), was diluted with 0.05 M Tris-buffered saline (TBS), pH 7.4, to the concentration of 0.75 U/mL, and pre-incubated with the examined extracts at the final concentration of 1–50 μg/mL for 10 min, at 37°C. In control samples, 20% DMSO instead of the extracts was used. The measurements were conducted using a kinetic protocol, with absorbance recorded at 415 nm, every 10 s, for 15 min. The reaction mixture comprised 280 µL of thrombin (pre-incubated with the extracts or control/untreated enzyme) and 40 µL of 3 mM chromogenic substrate Chromogenix S-2238 purchased from Instrumentation Laboratory (Bedford, MA, United States of America). Thrombin amidolytic activity was estimated using the BMG Labtech software based on the maximal velocity of the reaction (Vmax). The assays were performed using 96-well microplates and the BMG Labtech SpectroStar Nano spectrophotometer (BMG LABTECH, Offenburg, Germany).

Assay [3] has as its system blood platelets. The assay is described as follows: Collagen-induced blood platelet aggregation in platelet-rich plasma. Conditions: Homo sapiens, 5 μg/mL. In kind it is cell-based. On the procedure: as §1
A further assay deals with T2, human thrombin (Homo sapiens, UniProt P00734).
T2 construct: comprises two polypeptide chains: the light chain, formed by 36 amino acids, and the heavy chain, which has 259 amino acids; purchased Sigma-Aldrich (St. Louis, MO, United States)
In words: Circular dichroism spectra of thrombin. Conditions: thrombin 15 μg/mL, compounds from 1 μg/mL, 37°C. How it is done: Each spectrum was the average of three repetitions. Human thrombin was used at a 15 μg/mL concentration in 10 mM phosphate buffer (pH = 7.4). In determining circular dichroism spectra, stock solutions of P. spinosa flower components (10 mg/mL) in 10% tetrahydrofuran were initially prepared. The final concentration of tetrahydrofuran in the sample was less than 0.05%. The selected extract components in phosphate buffer without thrombin at the concentrations used in the experiments were used as a baseline for thrombin/extract complexes spectra.

For assay [4], the system named is thrombin. Also noted: method as in Wei et al. (2019). Conditions: ref Wei et al. (2019); read-out: IC50, inhibition of proteolytic activity of thrombin; cited from earlier work.
Assay [5] addresses T1, thrombin. Also on record: method as in Liu et al. (2010). The note with it: ref Liu et al. (2010); read-out: IC50, thrombin inhibition in optimized TT assay; cited from earlier work.
Assay [6] concerns human plasma. The assay is described as follows: Prothrombin time (PT) in blood plasma. The note with it: mean ± SE, n = 12. In kind it is biochemical. On the procedure:
When determining the hemostatic parameters, stock solutions of the P. spinosa flower extracts (10 mg/mL) were prepared in 30% DMSO. […] The studies mixed 5 µL of the extracts with 495 µL of blood plasma or thrombin solution. Control samples were untreated with the extracts; however, they contained a vehicle for the plant preparations, i.e., DMSO.
(Budapest, Hungary), according to the laboratory protocols delivered by the manufacturer. […] Control samples were prepared using blood plasma untreated with the extracts.

The test system of assay [7] is human plasma. The assay is described as follows: Activated partial thromboplastin time (APTT) in blood plasma. In kind it is biochemical. The note with it: mean ± SE, n = 12. On the procedure: as §2, with “i.e., DMSO. The effect of DMSO on the investigated parameters was excluded in preliminary tests. All experiments used argatroban, a reference anticoagulant drug, as a positive control.” for “i.e., DMSO.”
Thrombin (TT), prothrombin (PT) and the activated partial thromboplastin time (APTT) were measured in blood plasma using a Kselmed K-3002 Optic coagulometer (Kselmed, Grudziadz, Poland) and reagents purchased from Diagon Kft. (Budapest, Hungary), according to the laboratory protocols delivered by the manufacturer. […] Control samples were prepared using blood plasma untreated with the extracts.

Assay [8] relates to human plasma. The assay is described as follows: Thrombin time (TT) in blood plasma. In kind it is biochemical. The note with it: mean ± SE, n = 12. On the procedure:
as §2, with “i.e., DMSO. The effect of DMSO on the investigated parameters was excluded in preliminary tests. All experiments used argatroban, a reference anticoagulant drug, as a positive control.” for “i.e., DMSO.”
Thrombin (TT), prothrombin (PT) and the activated partial thromboplastin time (APTT) were measured in blood plasma using a Kselmed K-3002 Optic coagulometer (Kselmed, Grudziadz, Poland) and reagents purchased from Diagon Kft. (Budapest, Hungary), according to the laboratory protocols delivered by the manufacturer. Before the assays, the blood plasma samples were pre-incubated with the examined extracts at the final 1–50 μg/mL concentration for 15 min at 37°C. Control samples were prepared using blood plasma untreated with the extracts.

By inhibition is commonly meant the percentage by which the read-out fell short of the control. Low values mean a response near the control, high ones a response far below the control. `O=c1c(O[C@@H]2O[C@@H](CO)[C@H](O)[C@H]2O)c(-c2ccc(O)c(O)c2)oc2cc(O)cc(O)c12` [AV, Quercetin 3-O-α-L-arabinofuranoside]: the inhibition at 50 µg/mL in the assay with blood platelets [1] was no more than 15%.
A word on the IC50: it is the concentration that gives 50% inhibition. Take `O=C(/C=C/c1ccc(O)cc1)O[C@H]1[C@H](Oc2c(-c3ccc(O)cc3)oc3cc(O)cc(O)c3c2=O)O[C@@H](CO)[C@@H]1O` [p-cJU, Kaempferol 3-O-(2″-O-E-p-coumaroyl)-α-L-arabinofuranoside]: the IC50 on thrombin [2] is 67.8 µM.
Take `COc1ccc2c(c1)c(CC(=O)O)c(C)n2C(=O)c1ccc(Cl)cc1` [Indomethacin]: the inhibition at 5 µg/mL with blood platelets [1] (5 μg/mL, ADP) is roughly 23%; in the assay on blood platelets [3] it was roughly 86%.
For `Oc1cc(O)c2c(c1)O[C@@]1(c3ccc(O)c(O)c3)Oc3cc(O)c4c(c3[C@@H]2[C@H]1O)O[C@H](c1ccc(O)c(O)c1)[C@H](O)C4` [PA2, proanthocyanidin A2], the IC50 on thrombin [2] is 90.8 µM. In addition, the “Change of thrombin CD spectrum / secondary structure” value at human thrombin is recorded as “most apparent modification of the thrombin α-helix structure”.
`O=c1c(O[C@@H]2O[C@@H](CO)[C@H](O)[C@H]2O)c(-c2ccc(O)cc2)oc2cc(O)cc(O)c12` [JU, Kaempferol 3-O-α-L-arabinofuranoside]: the inhibition at 50 µg/mL in the assay on blood platelets [1] was no more than 15%.
The pIC50 is the IC50 on a negative log10 scale, so that one unit is a factor of ten. As to `O=c1c(O[C@@H]2O[C@H](CO)[C@@H](O)[C@H](O)[C@H]2O)c(-c2ccc(O)c(O)c2)oc2cc(O)cc(O)c12` [IQ, Quercetin 3-O-β-D-glucopyranoside], the pIC50 in the assay with thrombin [4] was 4.54.
Consider `C[C@@H]1O[C@@H](Oc2c(-c3ccc(O)cc3)oc3cc(O)cc(O)c3c2=O)[C@H](OC(=O)/C=C/c2ccc(O)cc2)[C@H](O)[C@H]1OC(=O)/C=C/c1ccc(O)cc1` [kaempferol-3-O-(2″,4″-di-E-p-coumaroyl)-rhamnoside], for which the pIC50 on thrombin [5] is 4.28.
On to `CC1CNc2c(cccc2S(=O)(=O)N[C@@H](CCCNC(=N)N)C(=O)N2CC[C@@H](C)C[C@@H]2C(=O)O)C1` (stereo partly shown) [Argatroban], for which the results for the “Clothing times PT” value with human plasma [6] (0.5 µg/mL), with human plasma [6] (5 µg/mL) and in the assay with human plasma [6] (10 µg/mL) were 134.01 ± 1.50 % of the control/untreated human plasma, 562.65 ± 12.69 % of the control/untreated human plasma and 821.54 ± 46.95 % of the control/untreated human plasma, respectively. In addition, the “Clothing times APTT” value in the assay with human plasma [7] (0.5 µg/mL) is 202.58 ± 2.32 % of the control/untreated human plasma; in the assay with human plasma [7] (5 µg/mL) it was 423.72 ± 7.83 % of the control/untreated human plasma; in the assay on human plasma [7] (10 µg/mL), “No clot”. For the same compound, the “Clothing times TT” value in the assay with human plasma [8] (0.5 µg/mL) is recorded as 974.60 ± 27.50 % of the control/untreated human plasma; in the assay on human plasma [8] (5 µg/mL) it was “No clot”; with human plasma [8] (10 µg/mL), “No clot”.
With `O=c1c(O)c(-c2ccc(O)cc2)oc2cc(O)cc(O)c12` [KA, Kaempferol], the half-inhibitory concentration (IC50) at thrombin [2] is 283 µM. For the same compound, the pIC50 at thrombin [5] was 3.96.
In the case of “kaempferol-3-O-(2″-di-E-p-coumaroyl)-rhamnoside”, the pIC50 at thrombin [5] is 4.08.
With `C[C@@H]1O[C@@H](OC[C@H]2O[C@@H](Oc3c(-c4ccc(O)c(O)c4)oc4cc(O)cc(O)c4c3=O)[C@H](O)[C@@H](O)[C@@H]2O)[C@H](O)[C@H](O)[C@H]1O` [RT, Quercetin 3-O-(6″-O-α-L-rhamnopyranosyl)-β-D-glucopyranoside], the results for the negative-log IC50 (pIC50) in the assay with thrombin [4] and at thrombin [5] were 4.47 and less than 3.00, respectively.
Turning to `O=c1c(O[C@@H]2O[C@H](CO)[C@@H](O)[C@H](O)[C@H]2O)c(-c2ccc(O)cc2)oc2cc(O)cc(O)c12` [kaempferol-3-O-glucoside], the pIC50 on thrombin [5] was less than 3.00.
Consider `O=c1c(O[C@@H]2O[C@H](CO)[C@H](O)[C@H](O)[C@H]2O)c(-c2ccc(O)c(O)c2)oc2cc(O)cc(O)c12` [HY, Quercetin 3-O-β-D-galactopyranoside], for which, on thrombin [5], the pIC50 is less than 3.00.
